Key:
Src = Src kinase assay; assay type: biochemical; conditions: read-out: IC50 (inactive up to); Src pretreated 30 min in the presence of 0.25 mM ATP prior to initiating the kinase reaction
endogenous Lck = endogenous Lck (Homo sapiens, UniProt P06239); experiment: Competitive profiling with probe 1 in Jurkat cells: Lck; assay type: cell-based; conditions: inhibitor at 300 nM, then 1 (1 µM, 15 min)
endogenous Blk = endogenous Blk (Homo sapiens, UniProt P51451); experiment: Competitive profiling with probe 1 in Jurkat cells: Blk; assay type: cell-based; conditions: inhibitor at 300 nM, then 1 (1 µM, 15 min)
Chain of endogenous Blk (P51451 whole entry): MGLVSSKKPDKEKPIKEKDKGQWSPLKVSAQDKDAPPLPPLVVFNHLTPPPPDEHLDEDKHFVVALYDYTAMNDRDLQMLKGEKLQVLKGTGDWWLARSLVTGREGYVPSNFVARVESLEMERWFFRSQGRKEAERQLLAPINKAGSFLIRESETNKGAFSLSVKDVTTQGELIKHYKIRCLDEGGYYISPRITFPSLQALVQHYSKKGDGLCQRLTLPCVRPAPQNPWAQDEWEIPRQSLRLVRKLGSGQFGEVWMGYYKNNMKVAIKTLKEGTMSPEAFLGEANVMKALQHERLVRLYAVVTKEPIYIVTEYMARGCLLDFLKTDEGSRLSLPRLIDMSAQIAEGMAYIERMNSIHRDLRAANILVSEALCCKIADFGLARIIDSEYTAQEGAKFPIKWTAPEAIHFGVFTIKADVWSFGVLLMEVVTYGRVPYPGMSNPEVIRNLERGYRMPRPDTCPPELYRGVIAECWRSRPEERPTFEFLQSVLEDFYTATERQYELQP

endogenous Fyn = endogenous Fyn (Homo sapiens, UniProt P06241); experiment: Competitive profiling with probe 1 in Jurkat cells: Fyn; assay type: cell-based; conditions: inhibitor at 300 nM, then 1 (1 µM, 15 min)
Chain of endogenous Fyn (P06241 1-534 isoform P06241-2): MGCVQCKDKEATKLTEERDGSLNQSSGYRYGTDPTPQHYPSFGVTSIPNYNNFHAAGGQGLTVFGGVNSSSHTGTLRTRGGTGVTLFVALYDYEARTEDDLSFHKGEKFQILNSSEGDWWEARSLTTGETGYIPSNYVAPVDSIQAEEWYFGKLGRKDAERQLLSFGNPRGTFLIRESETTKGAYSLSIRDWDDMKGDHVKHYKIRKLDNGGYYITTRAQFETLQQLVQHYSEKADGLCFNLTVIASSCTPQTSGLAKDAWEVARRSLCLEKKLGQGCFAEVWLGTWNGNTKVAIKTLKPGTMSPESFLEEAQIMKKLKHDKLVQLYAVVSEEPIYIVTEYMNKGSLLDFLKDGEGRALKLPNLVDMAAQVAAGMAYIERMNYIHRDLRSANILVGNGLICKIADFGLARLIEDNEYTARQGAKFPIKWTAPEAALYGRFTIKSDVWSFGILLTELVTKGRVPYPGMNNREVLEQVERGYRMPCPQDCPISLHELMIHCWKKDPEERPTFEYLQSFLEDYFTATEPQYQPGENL

endogenous Src = endogenous Src (Homo sapiens, UniProt P12931); conditions: Jurkat cells, inhibitor at 300 nM, then 1 (1 µM, 15 min)
Chain of endogenous Src (P12931 whole entry): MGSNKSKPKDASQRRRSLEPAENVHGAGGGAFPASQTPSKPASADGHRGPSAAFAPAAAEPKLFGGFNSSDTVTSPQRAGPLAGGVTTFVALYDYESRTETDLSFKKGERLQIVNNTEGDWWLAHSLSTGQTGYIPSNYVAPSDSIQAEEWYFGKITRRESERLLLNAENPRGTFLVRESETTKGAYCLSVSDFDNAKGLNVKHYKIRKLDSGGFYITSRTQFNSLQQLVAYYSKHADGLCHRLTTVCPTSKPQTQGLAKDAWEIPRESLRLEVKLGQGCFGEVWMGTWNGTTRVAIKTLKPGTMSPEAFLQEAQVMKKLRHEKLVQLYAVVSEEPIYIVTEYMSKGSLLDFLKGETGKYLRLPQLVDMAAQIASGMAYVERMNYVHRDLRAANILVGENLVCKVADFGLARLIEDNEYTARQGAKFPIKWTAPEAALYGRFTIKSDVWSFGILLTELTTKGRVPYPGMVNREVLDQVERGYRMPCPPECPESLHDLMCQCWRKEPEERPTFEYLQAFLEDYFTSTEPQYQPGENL

[1] = in humans; cited from earlier work

Chain of endogenous Lck (P06239 whole entry): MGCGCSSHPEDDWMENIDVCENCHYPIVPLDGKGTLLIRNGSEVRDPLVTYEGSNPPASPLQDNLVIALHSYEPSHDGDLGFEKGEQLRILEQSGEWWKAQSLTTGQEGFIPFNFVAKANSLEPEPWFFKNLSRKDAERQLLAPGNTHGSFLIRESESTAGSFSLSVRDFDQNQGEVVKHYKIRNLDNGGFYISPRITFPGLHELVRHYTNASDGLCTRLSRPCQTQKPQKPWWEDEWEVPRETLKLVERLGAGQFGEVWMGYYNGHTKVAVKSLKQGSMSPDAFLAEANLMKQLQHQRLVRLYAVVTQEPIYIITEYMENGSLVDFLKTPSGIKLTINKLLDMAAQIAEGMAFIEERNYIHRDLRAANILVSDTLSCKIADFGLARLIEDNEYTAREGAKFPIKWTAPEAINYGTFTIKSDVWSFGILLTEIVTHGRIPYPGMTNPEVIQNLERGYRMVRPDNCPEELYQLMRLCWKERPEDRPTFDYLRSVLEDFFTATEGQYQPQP

Compound	IC50 (Src)	labeling of endogenous Lck by 1 (endogenous Lck)	labeling of endogenous Blk by 1 (endogenous Blk)	labeling of endogenous Fyn by 1 (endogenous Fyn)	labeling of endogenous Src by 1 (endogenous Src)	mean steady-state concentrations [1]
Nc1ncnc2c1ncn2[C@@H]1O[C@H](COC(=O)c2ccc(S(=O)(=O)F)cc2)[C@@H](O)[C@H]1O [FSBA, p-fluorosulfonylbenzoyl adenosine]	> 10 µM					
Cc1ccc(C(=O)Nc2ccc(CN3CCN(C)CC3)c(C(F)(F)F)c2)cc1C#Cc1cnc2cccnn12 [ponatinib]		abrogated labeling	abrogated labeling	unaffected	unaffected	75 to 180 nM

Source: PMC3729023 (Journal of the American Chemical Society, 2012)
